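Growth conditions: 96-well plates. Treatment: test compound, 48 hours, 5 concentrations. Analysis: linear interpolation between bracketing concentrations; unreached endpoints set to highest concentration. At the GI50, growth is halved. TGI is the concentration that stops growth completely.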
How the values were obtained:
Assay in all cases: inhibition of tumour cell growth, NCI panel, 48 h
[1] = tested on: A549 NSCLC
[2] = tested on: K-562 leukemia
[3] = tested on: A498 renal
[4] = tested on: OVCAR-3 ovarian
[5] = tested on: MOLT-4 leukemia
[6] = tested on: HCT-15 colon
[7] = tested on: DU-145 prostate
[8] = tested on: HOP-62 NSCLC
[9] = tested on: NCI-H460 lung
[10] = tested on: IGROV1 ovarian
[11] = tested on: SK-MEL-5 melanoma
[12] = tested on: SK-MEL-28 melanoma
[13] = tested on: NCI-H23 lung
[14] = tested on: MCF7 breast
[15] = tested on: SNB-75 CNS
[16] = tested on: HS 578T breast
[17] = tested on: HCC-2998 colon
[18] = tested on: HL-60(TB) leukemia
[19] = tested on: NCI-H522 lung
[20] = tested on: OVCAR-8 ovarian
[21] = tested on: OVCAR-5 ovarian
[22] = tested on: HT29 colon
[23] = tested on: ACHN renal
[24] = tested on: SN12C renal
[25] = tested on: SR leukemia
[26] = tested on: MALME-3M melanoma
[27] = tested on: COLO 205 colon
[28] = tested on: CAKI-1 renal
[29] = tested on: SF-539 CNS
[30] = tested on: OVCAR-4 ovarian
[31] = tested on: RPMI-8226 leukemia
[32] = tested on: SW-620 colon
[33] = tested on: UACC-257 melanoma
[34] = tested on: HOP-92 NSCLC
[35] = tested on: KM12 colon
[36] = tested on: UO-31 renal
[37] = tested on: NCI/ADR-RES ovarian
[38] = tested on: T-47D breast
[39] = tested on: HCT-116 colon
[40] = tested on: BT-549 breast
[41] = tested on: SNB-19 CNS
[42] = tested on: MDA-MB-231 breast
[43] = tested on: U251 CNS
[44] = tested on: SF-268 CNS
[45] = tested on: 786-0 renal
[46] = tested on: LOX IMVI melanoma
[47] = tested on: TK-10 renal
[48] = tested on: RXF 393 renal
[49] = tested on: NCI-H226 lung
[50] = tested on: CCRF-CEM leukemia
[51] = tested on: SF-295 CNS
[52] = tested on: UACC-62 melanoma
[53] = tested on: M14 melanoma
[54] = tested on: MDA-MB-435
[55] = tested on: PC-3 prostate
[56] = tested on: SK-OV-3 ovarian

CCCCCCC(O)(c1ccc(F)cc1)C(CN1CCOCC1)c1ccccc1 (configuration not stated)
GI50 [1]: 11.7 µM | TGI [1]: 29.3 µM | GI50 [2]: 14.9 µM | TGI [2]: 37.7 µM | GI50 [3]: 11.6 µM | TGI [3]: 30 µM | GI50 [4]: 12.5 µM | TGI [4]: 25.4 µM | GI50 [5]: 13.3 µM | TGI [5]: 32.4 µM | GI50 [6]: 11.5 µM | TGI [6]: 24.7 µM | GI50 [7]: 14.6 µM | TGI [7]: 28.7 µM | GI50 [8]: 19.2 µM | TGI [8]: 35.3 µM | GI50 [9]: 13.4 µM | TGI [9]: 29.3 µM | GI50 [10]: 12.8 µM | TGI [10]: 41.9 µM | GI50 [11]: 4.64 µM | TGI [11]: 18.6 µM | GI50 [12]: 16.4 µM | TGI [12]: 34.5 µM | GI50 [13]: 11.1 µM | TGI [13]: 30.6 µM | GI50 [14]: 11.7 µM | TGI [14]: 24.4 µM | GI50 [15]: 14.4 µM | TGI [15]: 35.9 µM | GI50 [16]: 14.8 µM | TGI [16]: 40 µM | GI50 [17]: 13.8 µM | TGI [17]: 29.3 µM | GI50 [18]: 12 µM | TGI [18]: 31.6 µM | GI50 [19]: 8.14 µM | TGI [19]: 22.3 µM | GI50 [20]: 14.2 µM | TGI [20]: 34.8 µM | GI50 [21]: 13.8 µM | TGI [21]: 26.8 µM | GI50 [22]: 5.37 µM | TGI [22]: 19.9 µM | GI50 [23]: 12.3 µM | TGI [23]: 24.9 µM | GI50 [24]: 12.7 µM | TGI [24]: 28.3 µM | GI50 [25]: 11.9 µM | TGI [25]: 29.8 µM | GI50 [26]: 15 µM | TGI [26]: 33.4 µM | GI50 [27]: 12.1 µM | TGI [27]: 27 µM | GI50 [28]: 12.5 µM | TGI [28]: 28.9 µM | GI50 [29]: 15.6 µM | TGI [29]: 29.6 µM | GI50 [30]: 14.2 µM | TGI [30]: 29.8 µM | GI50 [31]: 5.48 µM | TGI [31]: 21.7 µM | GI50 [32]: 12.2 µM | TGI [32]: 26.3 µM | GI50 [33]: 10.3 µM | TGI [33]: 27.3 µM | GI50 [34]: 12.8 µM | TGI [34]: 26.1 µM | GI50 [35]: 12.4 µM | TGI [35]: 28.4 µM | GI50 [36]: 11.6 µM | TGI [36]: 26.4 µM | GI50 [37]: 12.1 µM | TGI [37]: 34.2 µM | GI50 [38]: 10.4 µM | TGI [38]: 23.8 µM | GI50 [39]: 8.53 µM | TGI [39]: 24.6 µM | GI50 [40]: 14.7 µM | TGI [40]: 29.6 µM | GI50 [41]: 12.8 µM | TGI [41]: 27.5 µM | GI50 [42]: 11.4 µM | TGI [42]: 26.5 µM | GI50 [43]: 12.2 µM | TGI [43]: 25.1 µM | GI50 [44]: 13 µM | TGI [44]: 28.4 µM | GI50 [45]: 13.2 µM | TGI [45]: 27.3 µM | GI50 [46]: 16.2 µM | TGI [46]: 31.1 µM | GI50 [47]: 18 µM | TGI [47]: 32.8 µM | GI50 [48]: 5.26 µM | TGI [48]: 19 µM | GI50 [49]: 8.63 µM | TGI [49]: 24.8 µM | GI50 [50]: 13.9 µM | TGI [50]: 32.9 µM | GI50 [51]: 15.3 µM | TGI [51]: 31.5 µM | GI50 [52]: 11.4 µM | TGI [52]: 27.7 µM | GI50 [53]: 16.3 µM | TGI [53]: 34.4 µM | GI50 [54]: 15.8 µM | TGI [54]: 41.7 µM | GI50 [55]: 5.24 µM | TGI [55]: 21.3 µM | GI50 [56]: 16 µM | TGI [56]: 36.7 µM

Source: PubChem BioAssay (NCI)
